Results: ChEMBL document CHEMBL1201862, “PubChem BioAssay data set” (2004)
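All cell lines were grown in 96-well plates and treated with compound for 48 hours. GI50 is the concentration that inhibits growth by half.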 Calls of active or inactive are those of the source. Rule as the data show it: active = GI50 up to about 1.1 µM and inactive = higher.

Columns and labels:
Assay in all cases: NCI-60 cell line screen, 48 h
[1] = system: UACC-62
[2] = system: UO-31
[3] = system: K562
[4] = system: Malme-3M
[5] = system: OVCAR-8
[6] = system: NCI-H522
[7] = system: SN12C
[8] = system: DLD-1
[9] = system: SNB-75
[10] = system: M14
[11] = system: COLO 205
[12] = system: SF-539
[13] = system: NCI-H226
[14] = system: KM12
[15] = system: SNB-78
[16] = system: SK-OV-3
[17] = system: HCT-15
[18] = system: HOP-62
[19] = system: CAKI-1
[20] = system: MOLT-4
[21] = system: NCI-H460
[22] = system: SK-MEL-28
[23] = system: EKVX
[24] = system: A498
[25] = system: 786-0
[26] = system: IGROV-1
[27] = system: M19-MEL
[28] = system: SK-MEL-2
[29] = system: RXF 631
[30] = system: HL-60
[31] = system: HCT-116
[32] = system: A549
[33] = system: CCRF-CEM
[34] = system: ACHN
[35] = system: U-251
[36] = system: LOX IMVI
[37] = system: LXFL 529
[38] = system: SF-295
[39] = system: KM-20L2
[40] = system: DMS-114
[41] = system: SK-MEL-5
[42] = system: RXF 393
[43] = system: HOP-18
[44] = system: OVCAR-4
[45] = system: HCC 2998
[46] = system: RPMI-8226
[47] = system: SF-268
[48] = system: UACC-257
[49] = system: SNB-19
[50] = system: HT-29
[51] = system: DMS-273
[52] = system: SW-620
[53] = system: OVCAR-3
[54] = system: SR
[55] = system: NCI-H23
[56] = system: HOP-92
[57] = system: OVCAR-5
[58] = system: TK-10

Measured: GI50

O=C(NCCCN1CCN(CCCNC(=O)c2cnc3ccccc3n2)CC1)c1cnc2ccccc2n1
> 100 µM: [17]
inactive: [1] > 100 µM | [2] > 100 µM | [3] > 100 µM | [4] > 100 µM | [5] > 100 µM | [6] 90.8 µM | [7] > 100 µM | [8] > 100 µM | [9] > 100 µM | [10] > 100 µM | [11] > 100 µM | [12] > 100 µM | [13] 86.5 µM | [14] > 100 µM | [15] > 100 µM | [16] > 100 µM | [18] > 100 µM | [19] > 100 µM | [20] 44.8 µM | [21] > 100 µM | [22] > 100 µM | [23] > 100 µM | [24] 82 µM | [25] > 100 µM | [26] > 100 µM | [27] > 100 µM | [28] > 100 µM | [29] > 100 µM | [30] > 100 µM | [31] 44.8 µM | [32] > 100 µM | [33] > 100 µM | [34] 74.1 µM | [35] > 100 µM | [36] 76.6 µM | [37] > 100 µM | [38] > 100 µM | [39] > 100 µM | [40] 70.1 µM | [41] > 100 µM | [42] > 100 µM | [43] > 100 µM | [44] > 100 µM | [45] > 100 µM | [46] > 100 µM | [47] > 100 µM | [48] > 100 µM | [49] > 100 µM | [50] 88.3 µM | [51] > 100 µM | [52] > 100 µM | [53] > 100 µM

COC(=O)c1c2c(c(-c3ccccc3)c3c1-c1nc(Cl)ccc1CC3)CCc1ccc(Cl)nc1-2
inactive: [1] 71.6 µM | [2] > 100 µM | [3] > 100 µM | [4] > 100 µM | [5] 65.2 µM | [6] 77.1 µM | [7] > 100 µM | [8] > 100 µM | [9] 32.3 µM | [10] > 100 µM | [11] > 100 µM | [12] 45.5 µM | [13] 52.6 µM | [14] > 100 µM | [15] 37.9 µM | [16] > 100 µM | [54] > 100 µM | [18] > 100 µM | [19] > 100 µM | [20] > 100 µM | [21] 70.6 µM | [22] > 100 µM | [23] 61.4 µM | [24] > 100 µM | [25] > 100 µM | [26] > 100 µM | [27] > 100 µM | [29] > 100 µM | [30] > 100 µM | [31] 77.6 µM | [32] > 100 µM | [55] > 100 µM | [33] > 100 µM | [34] > 100 µM | [35] 59.6 µM | [56] 42.2 µM | [36] > 100 µM | [37] > 100 µM | [57] > 100 µM | [38] 44.6 µM | [58] > 100 µM | [39] > 100 µM | [41] > 100 µM | [42] 47.5 µM | [43] > 100 µM | [44] > 100 µM | [45] > 100 µM | [46] > 100 µM | [47] 78.5 µM | [48] > 100 µM | [49] 64 µM | [50] > 100 µM | [52] > 100 µM | [53] > 100 µM
> 100 µM: [17]
